# According to patent publication US20090227606A1, “Methods for Preventing or Treating Acute and Chronic Pain” (priority 2006, published 2009):
# “Also recorded” adds a separate entry of the source.
# Tests used:
# [1] = tested on: GLAST mRNA; assay: Real Time RT-PCR of ipsilateral lumbar spinal cord, GLAST mRNA; type: in vivo, rat
# Procedure: Tissue was collected from 4-5 rats/group on postoperative days 4 or 12. In order to obtain both mRNA and protein from the same tissue sample, the L5 region of the spinal cord (ipsilateral to the injury), was isolated and placed in PBS supplemented with protease inhibitor cocktail (1:1000, Sigma Chemical Co., St. Louis, Mo.) and RNase inhibitor (0.75 U/μL Ambion, Austin, Tex.). Samples were sonicated in five one-second bursts at half-maximal power, centrifuged at 6500 rpm for 15 minutes at 4° C. Protein-containing supernatants were collected and stored at −80° C. until further processing by Western blot analysis. […]
# Real time RT-PCR reactions were carried out in a total reaction volume of 25 μL containing a final concentration of 1.5 U Platinum Taq DNA polymerase (Invitrogen Corporation, Carlsbad, Calif.); 20 mM Tris HCl (pH 8.4); 50 mM KCl; 3 mM MgCl2; 200 μM dGTP, dCTP, and dATP; 400 μM dUTP and 1 U of UDG (uracyl DNA glycosylase); 900 nM of forward and reverse primers; 300 nM Taqman probe; and 5 μL of a 10-fold dilution of cDNA (50 ng) from the RT step. The iCycler™ Multicolor Real-Time PCR detection system (Bio-Rad, Hercules, Calif.) was used to quantify PCR product. […] The relative fold change from control was then expressed by calculation of 2^−ΔΔC^T for each sample and the results are expressed as the group mean fold change±SEM.
# [2] = tested on: cAMP; assay: cAMP levels in treated astrocytes, radio-receptor competition assay; type: cell-based, rat; settings: days 3 and 7
# Procedure: Subsequently, cells were harvested and boiled for 3 minutes followed by high-speed (8,000×g) centrifugation. Fifty microliters of the resultant supernatant (total of 300 μl) was used to determine cAMP levels in the competition assay. cAMP levels were measured using a radio-receptor competition assay. In brief, [^3H] cAMP was used in competition for a cAMP binding protein (PKA) against known concentrations of non-radiolabeled cAMP, followed by determination of the unknowns. The reaction was allowed to proceed for 2 hours at 4° C. Charcoal was used to remove excess unbound cAMP. Finally, samples were counted in 5 ml Liquiscint™ (National Diagnostics, Atlanta, Ga.).
# [3] = tested on: GLT-1; assay: Immunohistochemistry of rat lumbar spinal cord, GLT-1; type: in vivo; settings: day 12 post-transection, ipsilateral vs contralateral
# Procedure: For assessment of GFAP, GLT-1 and GLAST immunoreactivity, a separate group of rats (n=4/treatment) were anesthetized and transcardially perfused with 0.1 M PBS (phosphate-buffered saline), pH 7.4, followed by 4% paraformaldehyde in PBS on day 12 post-L5 spinal nerve transection. Lumbar spinal cord sections were identified, isolated, and processed as described previously (Colburn, R. W. et al. 1997. J. Neuroimmunol. 79:163-175). Free-floating, […] were cut in a cryostat and processed for immunofluorescence. Sections were blocked with 5% FBS/0.1% Triton-X 100 for 1 hour at room temperature (RT). For double immunofluorescence, spinal sections were incubated with a mixture of rabbit polyclonal anti-GLT-1 (1:500) or guinea pig anti-GLAST (1:5000, Chemicon, Temecula, Calif.), and mouse anti-GFAP G-A-5 (astrocyte marker, 1:400, Sigma Chemical Co., St. Louis, Mo.) in 3% FBS/0.1% triton-X 100/TBS over night at 4° C., washed, incubated in a mixture of goat anti-rabbit Alexa Fluor™-555 and goat anti-mouse Alexa Fluor™-488 (1:250, Molecular Probes, Eugene, Oreg.) secondary antibodies in 3% FBS/0.1% triton-X 100/TBS for 1 hour at RT. To control for nonspecific staining, control sections were incubated in the absence of primary antibodies. The sections were examined with a fluorescence microscope, and images were captured with a Q-Fire cooled camera. […]
smiles,measurement,setting,value
CCCn1cnc2c1c(=O)n(CCCCC(C)=O)c(=O)n2C [propentofylline],GLAST mRNA in lumbar spinal cord,"[1]; day 4, compared to L5 spinal nerve transection alone",slight decrease in GLAST mRNA
same,GLAST mRNA levels (FIG. 9B legend),[1]; days 4 and 12 post-transection,unaffected
same,relative cAMP/db-cAMP levels,[2],did not lead to elevation in cAMP at 3 or 7 days; also recorded: did not enhance cAMP activity
same,GLT-1 immunoreactivity in dorsal horn,[3],no qualitative difference in GLT-1 between ipsilateral and contralateral dorsal horns
